Laboratory results: PMC5876303, “Discovery of C-3 Tethered 2-oxo-benzo[1,4]oxazines as Potent Antioxidants: Bio-Inspired Based Design, Synthesis, Biological Evaluation, Cytotoxic, and in Silico Molecular Docking Studies” (Frontiers in Chemistry, 2018)
“Also recorded” adds a separate entry of the source.

Experiments:
[1] = DPPH radical scavenging antioxidant assay; format: biochemical; settings: Table 1; mean ± SD, n = 3; 517 nm after 20 min
Procedure: In DPPH radical scavenging method the plant extract (0.75 mL) at different concentrations ranging from 10 to 100 μg mL^−1 was mixed with 1.5 mL of a DPPH methanolic solution (20 mg L^−1). Pure methanol was taken as control and ascorbic acid (vitamin C), vitamins A and E were used as a reference compounds. The absorbance was measured at 517 nm after 20 min of reaction. The % of DPPH decolouration of the sample was calculated according to the formula (Sharma and Bhat, [2009]).
Decolouration % = [1−(Abs SAMPLE/Abs CONTROL)]×100
The decolouration was plotted against the sample extract concentration and a logarithmic regression curve was established in order to calculate the IC50. The results are expressed as antiradical efficiency (AE), which is 1000-fold inverse of the IC50 value AE=1000/ IC50.

[2] = Ferric reducing antioxidant power (FRAP) assay; format: biochemical; settings: for FRAP potency compared with standard reference BHT: in words, BHT C0.5FRAP = 546.0 ± 13.6 μM; for FRAP assay (C0.5FRAP): mean ± SD, n = 3, concentration equivalent to FeSO4 at 0.5 mmol/L, 37°C, 30 min, 593 nm
Procedure: The FRAP reagent was prepared by the addition of freshly prepared 20.0 mM FeCl3.6H2O solution, 10.0 mM of […] (TPTZ) solution and 300 mM sodium acetate buffer (pH 3.6) in a ratio of 1:1:10 (v/v/v). After that, Sample (our synthesized 2-oxo-2-phenylethylidenes-linked 2-oxo-benzo[1,4]oxazines 20a-ab) was added to 3 ml of freshly prepared FRAP reagent and this reaction mixture was incubated at 37°C temperature for 30 min. and the absorbance was measured at 593 nm. It is also noted that, a freshly prepared solution of FeSO4 was used for calibration of standard curve. The FRAP antioxidant capability were evaluated in terms of C0.5FRAP (the antioxidant capability of samples related to their concentration, which is equivalent to that of FeSO4 at 0.5 mmol/L) (Benzie and Strain, [1996]).
The FRAP assay was deliberated using the method as illustrated by Benzie and Strain (Benzie and Strain, [1996]). […] The reducing nature of an antioxidant depends on their property to donate a hydrogen atom for the breaking of the free radical chain, which is responsible for oxidative stress etc.

SMILES | DPPH assay IC50 [1] | FRAP potency compared with standard reference BHT [2] | FRAP assay (C0.5FRAP) [2] | melting point
Cc1cc(Br)c2c(c1)N/C(=C\C(=O)c1ccccc1)C(=O)O2 [Compound 20m, (Z)-8-bromo-6-methyl-3-(2-oxo-2-phenylethylidene)-3,4-dihydro-2H-benzo[b][1,4]oxazin-2-one] | 24.4 ± 0.46 µg/mL | greater potency; also recorded: more potent than standard reference BHT | 536.7 ± 21.4 µM | 
COc1ccc(C(=O)/C=C2\Nc3cc(Cl)ccc3OC2=O)cc1 [Compound 20i, (Z)-6-chloro-3-(2-(4-methoxyphenyl)-2-oxoethylidene)-3,4-dihydro-2H-benzo[b][1,4]oxazin-2-one] | 34.9 ± 0.73 µg/mL |  | 648.2 ± 29.5 µM | 
O=C1O[C@H]([C@@H](O)CO)C(O)=C1O [Ascorbic acid, reference compound] | 4.57 µg/mL |  |  | 
Cc1ccc(C(=O)/C=C2\Nc3cc(C)cc(Br)c3OC2=O)cc1 [Compound 20q, (Z)-8-bromo-6-methyl-3-(2-oxo-2-(p-tolyl)ethylidene)-3,4-dihydro-2H-benzo[b][1,4]oxazin-2-one] | 36.24 ± 0.27 µg/mL |  |  | 219 to 220 °C
Cc1ccc2c(c1)N/C(=C\C(=O)c1ccc(Cl)cc1Cl)C(=O)O2 [Compound 20k, (Z)-3-[2-(2,4-dichloro-phenyl)-2-oxo-ethylidene]-6-methyl-3,4-dihydro-benzo[1,4]oxazin-2-one] | 43.6 ± 0.92 µg/mL |  | 652.5 ± 30.6 µM | 142 to 145 °C
O=C1Oc2ccc(Cl)cc2N/C1=C\C(=O)c1ccc(Br)cc1 [Compound 20g, (Z)-3-(2-(4-bromophenyl)-2-oxoethylidene)-6-chloro-3,4-dihydro-2H-benzo[b][1,4]oxazin-2-one] | 61.2 ± 1.23 µg/mL |  | 798.6 ± 32.5 µM | 175 to 177 °C
O=C1Oc2ccccc2N/C1=C\C(=O)c1ccc([N+](=O)[O-])cc1 [Compound 20s, (Z)-3-(2-(4-nitrophenyl)-2-oxoethylidene)-3,4-dihydro-2H-benzo[b][1,4]oxazin-2-one] | 21.3 ± 0.28 µg/mL | less active | 618.4 ± 23.9 µM | 207 to 209 °C
O=C1Oc2cc([N+](=O)[O-])ccc2N/C1=C\C(=O)c1ccccc1 [Compound 20w, (Z)-7-nitro-3-(2-oxo-2-phenylethylidene)-3,4-dihydro-2H-benzo[b][1,4]oxazin-2-one] | 12.53 ± 0.09 µg/mL | less active than BHT | 597.4 ± 26.4 µM | 240 to 242 °C
Cc1ccc(C(=O)/C=C2\Nc3cc(Cl)ccc3OC2=O)cc1 [Compound 20h, (Z)-6-chloro-3-(2-oxo-2-(p-tolyl)ethylidene)-3,4-dihydro-2H-benzo[b][1,4]oxazin-2-one] | 44.8 ± 0.81 µg/mL |  | 821.9 ± 38.7 µM | 160 to 162 °C
O=C1Oc2ccccc2N/C1=C\C(=O)c1ccccc1 [Compound 20a, (Z)-3-(2-oxo-2-phenylethylidene)-3,4-dihydro-2H-benzo[b][1,4]oxazin-2-one] | 10.2 ± 0.08 µg/mL | less active than BHT | 611.5 ± 23.2 µM | 
COc1ccc(C(=O)/C=C2\Nc3cc(C)ccc3OC2=O)cc1 [Compound 20l, (Z)-3-[2-(4-methoxy-phenyl)-2-oxo-ethylidene]-6-methyl-3,4-dihydro-benzo[1,4]oxazin-2-one] | 43.8 ± 0.85 µg/mL |  |  | 180 to 182 °C
O=C1Oc2ccc(Cl)cc2N/C1=C\C(=O)c1ccc(Cl)cc1Cl [Compound 20f, (Z)-6-chloro-3-(2-(2,4-dichlorophenyl)-2-oxoethylidene)-3,4-dihydro-2H-benzo[b][1,4]oxazine-2-One] | 56.6 ± 1.12 µg/mL |  |  | 135 to 137 °C
O=C1Oc2ccc(Cl)cc2N/C1=C\C(=O)c1ccc(F)cc1 [Compound 20d, (Z)-6-chloro-3-(2-(4-fluorophenyl)-2-oxoethylidene)-3,4-dihydro-2H-benzo[b][1,4]oxazin-2-one] | 45.2 ± 0.92 µg/mL |  | 732.7 ± 41.6 µM | 155 to 157 °C
Cc1cc(C(C)(C)C)c(O)c(C(C)(C)C)c1 [BHT, reference compound] |  |  | 546.0 ± 13.6 µM | 
COc1ccc(C(=O)/C=C2\Nc3ccc([N+](=O)[O-])cc3OC2=O)cc1 [Compound 20ab, (Z)-3-(2-(4-methoxyphenyl)-2-oxoethylidene)-7-nitro-3,4-dihydro-2H-benzo[b][1,4]oxazin-2-one] | 43.6 ± 0.74 µg/mL |  |  | 
O=C1Oc2ccc(Cl)cc2N/C1=C\C(=O)c1ccccc1 [Compound 20c, (Z)-6-chloro-3-(2-oxo-2-phenylethylidene)-3,4-dihydro-2H-benzo[b][1,4]oxazin-2-one] | 28.8 ± 0.6 µg/mL | greater potency; also recorded: more potent than standard reference BHT | 467.8 ± 22.4 µM | 185 to 187 °C
Cc1cc(Br)c2c(c1)N/C(=C\C(=O)c1ccc(Cl)cc1Cl)C(=O)O2 [Compound 20o, (Z)-8-bromo-3-(2-(2,4-dichlorophenyl)-2-oxoethylidene)-6-methyl-3,4-dihydro-2H-benzo [b][1,4]oxazin-2-one] | 22.5 ± 0.64 µg/mL |  | 641.6 ± 28.7 µM | 
O=C1Oc2cc([N+](=O)[O-])ccc2N/C1=C\C(=O)c1ccc(Cl)cc1 [Compound 20y, (Z)-3-(2-(4-chlorophenyl)-2-oxoethylidene)-7-nitro-3,4-dihydro-2H-benzo[b][1,4]oxazin-2-one] | 19.8 ± 0.35 µg/mL |  | 708.2 ± 27.1 µM | 205 to 207 °C
O=C1Oc2cc([N+](=O)[O-])ccc2N/C1=C\C(=O)c1ccc(Br)cc1 [Compound 20aa, (Z)-3-(2-(4-bromophenyl)-2-oxoethylidene)-7-nitro-3,4-dihydro-2H-benzo[b][1,4]oxazin-2-one] | 28.37 ± 0.16 µg/mL | more potent than standard reference BHT | 518.6 ± 17.6 µM | 230 to 232 °C
Cc1cc(Br)c2c(c1)N/C(=C\C(=O)c1ccc(F)cc1)C(=O)O2 [Compound 20n, (Z)-8-bromo-3-(2-(4-fluorophenyl)-2-oxoethylidene)-6-methyl-3,4-dihydro-2H-benzo[b][1,4] oxazin-2-one] | 16.9 ± 0.72 µg/mL | more potent than standard reference BHT | 482.5 ± 35.5 µM | 
COc1ccc(C(=O)/C=C2\Nc3cc([N+](=O)[O-])ccc3OC2=O)cc1 [Compound 20v, (Z)-3-(2-(4-methoxyphenyl)-2-oxoethylidene)-6-nitro-3,4-dihydro-2H-benzo[b][1,4]oxazin-2-one] | 43.6 ± 0.92 µg/mL |  |  | 195 to 197 °C
Cc1ccc2c(c1)N/C(=C\C(=O)c1ccc([N+](=O)[O-])cc1)C(=O)O2 [Compound 20r, (Z)-6-methyl-3-(2-(4-nitrophenyl)-2-oxoethylidene)-3,4-dihydro-2H-benzo[1,4]oxazin-2-one] | 12.23 ± 0.05 µg/mL | potent activity than BHT; also recorded: more potent than standard reference BHT | 328.6 ± 25.8 µM | 
O=C1Oc2cc([N+](=O)[O-])ccc2N/C1=C\C(=O)c1ccc(Cl)cc1Cl [Compound 20z, (Z)-3-(2-(2,4-dichlorophenyl)-2-oxoethylidene)-7-nitro-3,4-dihydro-2H-benzo[b][1,4]oxazin-2-one] | 28.8 ± 0.67 µg/mL | more potent than standard reference BHT | 437.6 ± 39.4 µM | 208 to 210 °C
Cc1cc(Br)c2c(c1)N/C(=C\C(=O)c1ccc(Br)cc1)C(=O)O2 [Compound 20p, (Z)-8-bromo-3-(2-(4-bromophenyl)-2-oxoethylidene)-6-methyl-3,4-dihydro-2H-benzo[b] [1,4]oxazin-2-one] | 44.3 ± 0.45 µg/mL |  | >1000 µM | 259 to 260 °C
O=C1Oc2ccc(Cl)cc2N/C1=C\C(=O)c1ccc(Cl)cc1 [Compound 20e, (Z)-6-chloro-3-(2-(4-chlorophenyl)-2-oxoethylidene)-3,4-dihydro-2H-benzo[b][1,4]oxazin-2-one] | 92.2 ± 1.54 µg/mL |  |  | 182 to 185 °C
Cc1ccc2c(c1)N/C(=C\C(=O)c1ccc(F)cc1)C(=O)O2 [Compound 20j, (Z)-3-(2-(4-fluorophenyl)-2-oxoethylidene)-6-methyl-3,4-dihydro-2H-benzo[1,4]oxazin-2-one] | 34.4 ± 0.7 µg/mL | more potent than standard reference BHT | 502.6 ± 18.2 µM | 
